Reference: the NIST ThermoML archive (doi:10.1016/j.jct.2010.09.006)

Experiment: cn = amount concentration of the nth substance listed, in mol/dm3
Settings: 101 kPa, Liquid, Taylor dispersion method

[Cl][Ni][Cl] [nickel chloride (NiCl2)] + O
binary diffusion coefficient [m2/s]
Settings	c1 = 0	c1 = 0.001	c1 = 0.005	c1 = 0.01	c1 = 0.1
298.15 K	1.26e-09	1.23e-09	1.12e-09	1.04e-09	9.86e-10
310.15 K	1.4e-09	1.39e-09	1.37e-09	1.34e-09	1.29e-09
